Molecular target: Tyrosine-protein kinase Lck (Homo sapiens, UniProt P06239)
Assay: Ability to inhibit autophosphorylation of immunopurified p56Ick

Chain of Tyrosine-protein kinase Lck (P06239 whole entry): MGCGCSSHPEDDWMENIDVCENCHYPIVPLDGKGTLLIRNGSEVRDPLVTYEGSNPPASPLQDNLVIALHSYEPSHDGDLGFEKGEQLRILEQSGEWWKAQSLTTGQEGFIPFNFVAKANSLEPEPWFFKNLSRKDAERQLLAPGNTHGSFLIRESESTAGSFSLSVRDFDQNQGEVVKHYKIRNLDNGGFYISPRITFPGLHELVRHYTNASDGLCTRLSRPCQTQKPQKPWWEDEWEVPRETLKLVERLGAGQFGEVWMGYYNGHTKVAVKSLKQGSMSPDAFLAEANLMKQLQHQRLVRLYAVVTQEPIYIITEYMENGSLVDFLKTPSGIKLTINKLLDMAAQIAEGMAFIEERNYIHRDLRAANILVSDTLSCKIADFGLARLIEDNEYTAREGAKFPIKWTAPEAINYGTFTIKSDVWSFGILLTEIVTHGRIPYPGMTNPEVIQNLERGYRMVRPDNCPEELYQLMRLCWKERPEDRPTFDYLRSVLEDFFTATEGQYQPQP

Structure (SMILES) | IC50
COC(=O)c1ccc2c(O)c(O)ccc2c1 | 25 µM
N#C/C(=C\c1cc(O)cc(O)c1)C(N)=O | 500 µM
COC(=O)c1cc2ccc(O)c(O)c2cn1 | 0.2 µM
NC(=O)c1cnc2cc(O)c(O)cc2c1 | 610 µM
NC(=O)c1ccc2cc(O)c(O)cc2c1 | 26 µM
N#C/C(=C\c1ccc(O)c(O)c1)C(N)=O | 22 µM
N#C/C(=C\c1ccc(O)cc1)C(N)=O | 1000 µM
N#C/C(=C\c1cc(O)c(O)c(O)c1)C(N)=O | 2000 µM
N#C/C(=C\c1cccc(O)c1)C(N)=O | 1500 µM

Other lines, results leading:

IC50 | Structure (SMILES)
1500 µM | N=c1oc2ccccc2cc1C(N)=O
> 2000 µM | N=c1oc2cc(O)c(O)cc2cc1C(N)=O
750 µM | N=c1oc2c(O)c(O)ccc2cc1C(N)=O
100 µM | N=c1oc2ccc(O)cc2cc1C(N)=O
100 µM | N=c1oc2c(O)cccc2cc1C(N)=O
> 2000 µM | N=c1oc2cc(O)ccc2cc1C(N)=O
